# Data published in ChEMBL document CHEMBL3272053, “(exo, exo)-2-Aryltropane-3-carboxylic esters, hypoglycemic agents with accompanying analgesic activity” (J Med Chem, 1978).
# The source made the active and inactive calls. No cut-off for these calls is given here.
# Experiments:
# [1] = tested on: Rattus norvegicus; test: Hypoglycemic activity in Sprague-Dawley rat assessed as reduction of blood glucose level at 100 mg/kg, po by glucagon-impaired glucose disposal test relative to control; format: functional; parameters: scale not given: the % may be the effect or the level left
# [2] = tested on: Rattus norvegicus; test: Narcotic analgesic activity in fasted Sprague-Dawley rat at 240 mg/kg, po measured at 60 mins by D'Amour-Smith tail-flick test relative to control; format: functional
# [3] = tested on: Rattus norvegicus; test: Narcotic analgesic activity in fasted Sprague-Dawley rat at 240 mg/kg, po measured at 15 mins by D'Amour-Smith tail-flick test relative to control; format: functional
# [4] = tested on: Mus musculus; test: Analgesic activity in Swiss-Webster mouse assessed as reduction of acetylcholine-induced writhing at 25 mg/kg, sc relative to control; format: functional; parameters: scale not given: the % may be the effect or the level left; conditions: route subcutaneous
# [5] = tested on: Rattus norvegicus; test: Hypoglycemic activity in Sprague-Dawley rat assessed as reduction of blood glucose level at 89 mg/kg, po by glucagon-impaired glucose disposal test relative to control; format: functional; parameters: scale not given: the % may be the effect or the level left
# [6] = tested on: Rattus norvegicus; test: Narcotic analgesic activity in fed Sprague-Dawley rat at 120 mg/kg, sc measured at 30 mins by D'Amour-Smith tail-flick test; format: functional; conditions: route subcutaneous
# [7] = tested on: Mus musculus; test: Analgesic activity in Swiss-Webster mouse assessed as reduction of acetylcholine-induced writhing at 75 mg/kg, sc relative to control; format: functional; parameters: scale not given: the % may be the effect or the level left; conditions: route subcutaneous
# [8] = tested on: Rattus norvegicus; test: Hypoglycemic activity in glucose loaded Sprague-Dawley rat assessed as reduction of blood glucose level at 89 mg/kg, po relative to control; format: functional; parameters: scale not given: the % may be the effect or the level left
# [9] = tested on: Rattus norvegicus; test: Toxicity in Sprague-Dawley rat assessed as convulsion at 240 mg/kg, po; format: organism-based; parameters: dose 240 mg/kg, route oral; conditions: in vivo
# [10] = tested on: Rattus norvegicus; test: Toxicity in Sprague-Dawley rat assessed as rigidity at 240 mg/kg, po; format: organism-based; parameters: dose 240 mg/kg, route oral; conditions: in vivo
# [11] = tested on: Rattus norvegicus; test: Toxicity in Sprague-Dawley rat assessed as hyperexcitability at 240 mg/kg, po; format: organism-based; parameters: dose 240 mg/kg, route oral; conditions: in vivo
# [12] = tested on: Rattus norvegicus; test: Hypoglycemic activity in glucose loaded Sprague-Dawley rat assessed as reduction of blood glucose level at 89 mg/kg, po in presence of microsomal enzyme inhibitor SKF 525-A; format: functional, organism-based; parameters: dose 89 mg/kg
# [13] = tested on: Mus musculus; test: Analgesic activity in sc dosed Swiss-Webster mouse assessed as reduction of acetylcholine-induced writhing; format: functional; conditions: Mus musculus, Swiss-Webster, sc; read-out: ED50
# [14] = tested on: Rattus norvegicus; test: Toxicity in fasted Sprague-Dawley rat assessed as mortality at 240 mg/kg, po measured at 60 mins; format: organism-based; parameters: dose 240 mg/kg, route oral; conditions: in vivo, 1 h
# [15] = tested on: Rattus norvegicus; test: Narcotic antagonist activity in fed Sprague-Dawley rat assessed as decrease in phenazocine-induced analgesic activity at 80 mg/kg, sc; format: functional; parameters: scale not given: the % may be the effect or the level left; conditions: route subcutaneous
# [16] = tested on: Rattus norvegicus; test: Hypoglycemic activity in Sprague-Dawley rat assessed as reduction of blood glucose level at 88 mg/kg, po by glucagon-impaired glucose disposal test relative to control; format: functional; parameters: scale not given: the % may be the effect or the level left
# [17] = tested on: Rattus norvegicus; test: Hypoglycemic activity in Sprague-Dawley rat assessed as reduction of blood glucose level at 88 mg/kg, po by glucagon-impaired glucose disposal test in presence of microsomal enzyme inhibitor SKF 525-A; format: functional, organism-based; parameters: dose 88 mg/kg
# [18] = tested on: Rattus norvegicus; test: Narcotic analgesic activity in fasted Sprague-Dawley rat at 120 mg/kg,sc measured at 30 mins by D'Amour-Smith tail-flick test in presence of opioid antagonist nalorphine; format: functional, organism-based; parameters: dose 120 mg/kg
# [19] = tested on: Rattus norvegicus; test: Hypoglycemic activity in Sprague-Dawley rat assessed as reduction of blood glucose level at 88 mg/kg, po by glucagon-impaired glucose disposal test in presence of opioid antagonist nalorphine; format: functional, organism-based; parameters: dose 88 mg/kg
# [20] = species: Rattus norvegicus; test: Narcotic analgesic activity in Sprague-Dawley rat at 15 mins by D'Amour-Smith tail-flick test in presence of microsomal enzyme inhibitor SKF 525-A; format: functional, organism-based
# [21] = tested on: Rattus norvegicus; test: Hypoglycemic activity in glucose/glycogen loaded Sprague-Dawley rat assessed as reduction of blood glucose level at 87 mg/kg, po; format: functional, organism-based; parameters: dose 87 mg/kg
# [22] = tested on: Rattus norvegicus; test: Hypoglycemic activity in fasted Sprague-Dawley rat assessed as reduction of blood glucose level at 100 mg/kg, po relative to control; format: functional; parameters: scale not given: the % may be the effect or the level left
# [23] = tested on: Rattus norvegicus; test: Narcotic analgesic activity in po dosed fasted Sprague-Dawley rat measured at 60 mins by D'Amour-Smith tail-flick test; format: functional; conditions: Rattus norvegicus, Sprague-Dawley, Tail, po, 1 h; read-out: ED50
# [24] = tested on: Rattus norvegicus; test: Hypoglycemic activity in Sprague-Dawley rat assessed as reduction of blood glucose level at 87 mg/kg, po by glucagon-impaired glucose disposal test in presence of microsomal enzyme inhibitor SKF 525-A; format: functional, organism-based; parameters: dose 87 mg/kg
# [25] = Drug level in glucose loaded Sprague-Dawley rat urine treated with (RS-exo,exo)-8-methyl-2-(2-thienyl)-8-azabicyclo[3.2.1]octane-3-carboxylate at 20 mg, po administered 3 to 6 hrs measured for 24 hrs by TLC/mass spectrographic analysis; format: ADME, organism-based; conditions: in vivo
# [26] = tested on: Mus musculus; test: Toxicity in Swiss-Webster mouse assessed as stimulation of straub tail at 150 mg/kg, po after 15 to 25 mins; format: organism-based; parameters: dose 150 mg/kg, route oral; conditions: in vivo
# [27] = Drug level in glucose loaded Sprague-Dawley rat urine treated with methyl (exo,exo)-8-(l-pentyl)-2-(2-thienyl)-8-azabicyclo[3.2.1]octane-3-carboxylate at 20 mg, po administered 3 to 6 hrs measured for 24 hrs by TLC/mass spectrographic analysis; format: ADME, organism-based; conditions: in vivo
# [28] = tested on: Rattus norvegicus; test: Hypoglycemic activity in Sprague-Dawley rat assessed as reduction of blood glucose level at 87 mg/kg, po by glucagon-impaired glucose disposal test relative to control; format: functional; parameters: scale not given: the % may be the effect or the level left
# [29] = tested on: Rattus norvegicus; test: Hypoglycemic activity in glucose loaded Sprague-Dawley rat assessed as reduction of blood glucose level at 100 mg/kg, po relative to control; format: functional; parameters: scale not given: the % may be the effect or the level left
# [30] = tested on: Rattus norvegicus; test: Narcotic analgesic activity in po dosed fasted Sprague-Dawley rat measured at 15 mins by D'Amour-Smith tail-flick test; format: functional; conditions: 0.25 h
# [31] = tested on: Mus musculus; test: Analgesic activity in po dosed Swiss-Webster mouse assessed as reduction of acetylcholine-induced writhing; format: functional
smiles,measurement,setting,value
CCCCCOC(=O)[C@H]1C[C@H]2CC[C@H]([C@H]1c1cccs1)N2C,Activity,[1],<20%
same,Activity,[2],<20%
same,Activity,[3],<20%
same,Activity,[4],27%
COC(=O)[C@H]1C[C@H]2CC[C@H]([C@H]1c1cccc(OC)c1)N2C.Cl,Activity,[5],24%
COC(=O)[C@H]1C[C@H]2CC[C@H]([C@H]1c1cccs1)N2Cc1ccccc1,Activity,[1],<20%
same,Activity,[6],<20%
same,Activity,[7],33%
COC(=O)[C@H]1C[C@H]2CC[C@H]([C@H]1c1cccs1)N2CCO.Cl,Activity,[8],72%
same,Activity,[3],100%
same,Activity,[7],73%
same,Activity,[9],Toxic
same,Activity,[10],Toxic
same,Activity,[11],Toxic
same,Activity,[12],Active
COC(=O)[C@H]1C[C@H]2CC[C@H]([C@H]1c1ccccc1)N2C (stereo in doubt; (-)-5),ED50,[13],18 mg/kg
same,Activity,[9],Toxic
same,Activity,[14],Toxic
same,Activity,[15],73%
COC(=O)[C@H]1C[C@H]2CC[C@@H](N2)[C@H]1c1cccc(O)c1.Cl,Activity,[2],<20%
same,Activity,[3],<20%
same,ED50,[13],24 mg/kg
same,Activity,[16],<20%
COC(=O)[C@H]1C[C@H]2CC[C@H]([C@H]1c1cccs1)N2C,Activity,[17],inactive
same,Activity,[18],inactive
same,Activity,[19],Active
same,Activity,[20],inactive
COC(=O)[C@H]1CCCN(C)[C@@H]1c1cccs1 (relative stereo),Activity,[21],inactive
COC(=O)[C@H]1C[C@H]2CC[C@H]([C@H]1c1cccs1)N2CC1CCCO1 (stereo partly drawn),Activity,[22],39%
same,Activity,[3],72%
COC(=O)[C@H]1C[C@H]2CC[C@@H](N2)[C@H]1c1cccs1.Cl,ED50,[23],43 mg/kg
same,ED50,[13],3.3 mg/kg
same,Activity,[24],Active
same,Drug metabolism,[25],metabolite_detected
same,Activity,[26],Toxic
same,Drug metabolism,[27],metabolite_detected
same,Activity,[28],43%
CCCCCN1[C@@H]2CC[C@@H]1[C@@H](c1cccs1)[C@@H](C(=O)OCC)C2,Activity,[29],61%
same,Activity,[2],65%
same,Activity,[7],13%
CCOC(CN1[C@@H]2CC[C@@H]1[C@@H](c1cccs1)[C@@H](C(=O)OC)C2)OCC,Activity,[22],47%
same,Activity,[3],87%
same,Activity,[7],27%
CCOC(=O)[C@H]1C[C@H]2CC[C@H]([C@H]1c1cccs1)N2C,Activity,[1],<20%
same,ED50,[30],95 mg/kg
same,ED50,[31],21 mg/kg
same,Activity,[26],Toxic
CCCCN1[C@@H]2CC[C@@H]1[C@@H](c1cccs1)[C@@H](C(=O)OC)C2,Activity,[22],34%
same,Activity,[3],88%
same,Activity,[4],20%
COC(=O)[C@H]1C[C@H]2CC[C@H]([C@H]1c1cccs1)N2CCc1ccccc1,Activity,[22],29%
same,Activity,[3],96%
same,Activity,[7],27%
